# Data taken from US8828987B2, “Pyridine amide derivatives as EP4 receptor antagonists” (Rottapharm Biotech S.R.L., priority 2010, dated 2014).
# Assays:
# human EP4 receptor [1] = molecular target: T1, human EP4 receptor (Homo sapiens, UniProt P35408); assay: cAMP assay (AlphaScreen) on human EP4 membrane of transfected cells, antagonism of PGE2; format: biochemical; conditions: HEK293 hEP4 cell membrane stimulated with PGE2 3 nM; read-out: functional IC50
# T1 construct: expressed in transfected cells; membrane fraction used
# T1 sequence (P35408 whole entry): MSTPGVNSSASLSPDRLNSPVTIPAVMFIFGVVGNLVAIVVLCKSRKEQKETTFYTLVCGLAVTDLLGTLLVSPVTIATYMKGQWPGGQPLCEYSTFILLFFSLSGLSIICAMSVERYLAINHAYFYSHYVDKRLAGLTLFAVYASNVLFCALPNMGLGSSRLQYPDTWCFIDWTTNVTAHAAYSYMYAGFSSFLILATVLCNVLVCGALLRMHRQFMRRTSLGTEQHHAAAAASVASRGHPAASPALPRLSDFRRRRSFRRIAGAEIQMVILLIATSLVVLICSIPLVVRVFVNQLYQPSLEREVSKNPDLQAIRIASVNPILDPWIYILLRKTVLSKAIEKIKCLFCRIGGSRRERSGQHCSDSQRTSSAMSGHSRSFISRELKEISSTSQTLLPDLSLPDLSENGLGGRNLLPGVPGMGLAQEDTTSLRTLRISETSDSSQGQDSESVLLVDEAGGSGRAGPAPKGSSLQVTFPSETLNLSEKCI
# Source text: (§1) Stable Expression of Human EP4 Receptors in the Human Embryonic Kidney (HEK293) Cell Line
# (§2) The cDNA clone of human EP4 receptor (NM_000958.2) was obtained from Invitrogen™: Ultimate™ ORF Clone Collection—Clone ID IOH46525. The coding sequence was subcloned in expression vector pcDNA™6.2/V5-DEST by Gateway technology (Invitrogen™).
# (§3) Human embryonic kidney cells (HEK-293) were stably transfected with expression vector for human EP4 receptor in according to the method described in FuGENE®6 Transfection Reagent's manual (Roche Applied Science®).
# (§4) Preparation of Membrane Fraction:
# (§5) The EP4 transfected cells were grown in Dulbecco's modified Eagle's medium containing 10% fetal bovine serum and 10 μg/ml Blasticidin S HCl (selection medium) at 37° C. in a humidified atmosphere of 5% CO2 in air.
# (§6) For the membrane preparation, cells in flask were harvested by hypotonical/mechanical lysis with chilled (4° C.) TE buffer (5 mM TRIS, 5 mM etylenediamine tetra-acetic acid (EDTA), pH 7.4).
# (§7) Cells were detached and lysed with 10 ml of hypotonic lysis buffer and by scraping. The cell lysate was vortexed for 30 sec and centrifuged at 40000×g at 4° C. for 22 min.
# b) cAMP Assay on Human EP4 Membrane of Transfected Cells.
# The assay is based on the competition between endogenous cAMP and exogenously added biotinylated cAMP. The capture of cAMP is achieved by using a specific antibody conjugated to […] beads.
# Cell membranes prepared as described above, were resuspended in 1 ml stimulation buffer (HBSS 1×+BSA 0.1%+IBMX 0.5 mM+HEPES 5 mM+MgCl2 10 mM+GTP 1 nM+GDP 10 μM+ATP 100 μM−pH 7.4). Cell membranes were dispensed into white 384-well microplates at final concentration of 1 μg/well and used for the determination of cAMP with the alphascreen cAMP functional assay (EnVision—PerkinElmer). Cell membrane/anti-cAMP Acceptor beads mix (5 μl) and a mixture of analysed compounds (dissolved in 100% DMSO to a final maximal concentration of 0.01% DMSO)/PGE2 (5 μl) were incubated at room temperature (22-23° C.) for 30 min in the dark. The Biotinylated-cAMP and donor beads (15 μl) were dispensed into each well to start the competition reaction. After 1 h incubation RT (22-23° C.) in the dark the plate was read using EnVision platform to determine the cAMP level (excitation: 680 nm; emission: 520,620 nm).
# cAMP standard curve (concentration range from 1×10-6 to 1×10-11 M in. log intervals) with a negative control (no cAMP) a positive control:forskolin 10 μM
# Antagonism studies were performed stimulating HEK293 cell membrane with PGE2 3 nM. The AlphaScreen signal is plotted as a function of log concentration of cAMP and functional IC50 is determined. IC50 value is calculated by linear regression.
# Some compounds were tested according to method of example 83b.
# human EP4 receptor [2] = molecular target: T1, human EP4 receptor; assay: [3H]-Prostaglandin E2 membrane binding assay (human EP4/HEK293 transfectant membranes); conditions: [3H]-PGE2 1 nM, hEP4/HEK293 membranes; Ki by Cheng-Prusoff; read-out: Binding pKi (converted)
# Source text: as §1, §2, §3, §4, §5, §6, §7
# a) Membrane Binding Assay[3H]-Prostaglandin E2
# The membrane pellet was resuspended in the same buffer (5 mM TRIS, 5 mM ethylenediamine tetra-acetic acid (EDTA), pH 7.4), and protein concentration was determined by Bradford method (Bio-Bad® assay).
# This membrane preparation was stored at −80° C. freezer until use for binding assay.
# ([^3H]-PGE2) membranes binding assays toward hEP4 receptors (human EP4/HEK293 transfectant, see above) and hEP2 receptors (human EP2/HEK293 transfectant, purchased from PerkinElmer Inc) were performed in 10 mM MES-KOH buffer pH6, containing 10 mM MgCl2 and 1 mM CaCl2 for EP4 binding assay or 50 mM Tris-Cl, BSA 0.5% for EP2 binding assay (according to supplier indication).
# Ten microgram of protein from membrane fractions were incubated in a total volume of 0.1 ml (EP4) or 0.2 ml (EP2) with 1 nM (EP4) or 3 nM (EP2) [^3H]-PGE2 (PerkinElmer Inc, 171 Ci/mmol). In both assays to determine the total binding or non specific binding, 1% DMSO or 1 μM prostaglandin E2 (EP4) or 100 μM (EP2) were added to reaction mixtures, respectively. Incubation was conducted in a polypropylene 96 multiwell for 90 min (EP4) or 60 min (EP2) at room temperature prior to separation of the bound and free radioligand by vacuum manifold rapid filtration on glass fiber filters (Unifilter GFB96, PerkinElmer Inc) pre-soaked in 0.3% polyethyleneimine. Filters were washed with ice cold buffer pH 7.4 (50 mM HEPES, NaCl 500 mM, BSA 0.1% for EP4 binding assay or 50 mM Tris-Cl for EP2 binding assays) and the residual [^3H]-PGE2 binding determined by solid scintillation counter (TopCount, PerkinElmer Inc).
# The affinity (Ki) of each compound was calculated according to the Cheng-Prousoff equation: Ki=IC50/(1+([C]/Kd)). Results were expressed as pKi (−log 10 Ki (M)
# Compounds of example 1 to 82 were tested according to method of example 83a in a final concentration range from 1 nM to 1 μM.
Compound,IC50 (human EP4 receptor [1]) [nM],Ki (human EP4 receptor [2]) [nM]
"O=C(O)c1ccc(C2(NC(=O)c3cc(Cl)cnc3N3CC(Nc4ccc(F)cc4)C3)CC2)cc1 [E 33, 4-(1-(5-chloro-2-(3-((4-fluorophenyl)amino)azetidin-1-yl)nicotinamido)cyclopropyl)benzoic acid]",44.5,6.31
"O=C(O)c1ccc(C2(NC(=O)c3cc(Cl)cnc3N3CCC(Oc4ccc(F)cc4)C3)CC2)cc1 (single isomer, unassigned) [E 68, 4-(1-(5-chloro-2-(3-(4-fluorophenoxy)pyrrolidin-1-yl)nicotinamido)cyclopropyl)benzoic acid]",66,31.6
"O=C(O)c1ccc(C2(NC(=O)c3cc(Cl)cnc3N3CCCC3c3ccccc3)CC2)cc1 (single isomer, unassigned) [E 3, 4-(1-(5-chloro-2-(2-phenylpyrrolidin-1-yl)nicotinamido)cyclopropyl)benzoic acid]",133,31.6
"O=C(O)c1ccc(C2(NC(=O)c3cc(C(F)(F)F)cnc3N3CC(Oc4cccc(OC(F)(F)F)c4)C3)CC2)cc1 [E 43, 4-(1-(2-(3-(3-(trifluoromethoxy)phenoxy)azetidin-1-yl)-5-(trifluoromethyl)nicotinamido)cyclopropyl)benzoic acid]",38,3.16
"C[C@H](NC(=O)c1cc(Cl)cnc1N1CC(Oc2cccc(F)c2)C1)c1ccc(C(=O)O)cc1 [E 12, (S)-4-(1-(5-chloro-2-(3-(3-fluorophenoxy)azetidin-1-yl)nicotinamido)ethyl)benzoic acid]",102,15.8
"O=C(O)c1ccc(C2(NC(=O)c3cc(Cl)cnc3N3CC(O)(c4ccc(F)cc4)C3)CC2)cc1 [E 28, 4-(1-(5-chloro-2-(3-(4-fluorophenyl)-3-hydroxyazetidin-1-yl)nicotinamido)cyclopropyl)benzoic acid]",197,79.4

# More lines, in order of falling IC50 (human EP4 receptor [1]), values ahead:
IC50 (human EP4 receptor [1]) [nM],Ki (human EP4 receptor [2]) [nM],Compound
228,63.1,"O=C(O)c1ccc(C2(NC(=O)c3cc(C(F)(F)F)cnc3N3CC(Oc4cccc(C(F)(F)F)n4)C3)CC2)cc1 [E 47, 4-(1-(5-(trifluoromethyl)-2-(3-((6-(trifluoromethyl)pyridin-2-yl)oxy)azetidin-1-yl)nicotinamido)cyclopropyl)benzoic acid]"
135,63.1,"O=C(O)c1ccc(C2(NC(=O)c3cc(Cl)cnc3N3CC(C(=O)c4cccc(F)c4)C3)CC2)cc1 [E 25, 4-(1-(5-chloro-2-(3-(3-fluorobenzoyl)azetidin-1-yl)nicotinamido)cyclopropyl)benzoic acid]"
102,200,"O=C(O)c1ccc(C2(NC(=O)c3cc(Cl)cnc3N3CCC(c4ccccc4)C3)CC2)cc1 (single isomer, unassigned) [E 4, 4-(1-(5-chloro-2-(3-phenylpyrrolidin-1-yl)nicotinamido)cyclopropyl)benzoic acid]"
87,50.1,"O=C(O)c1ccc(C2(NC(=O)c3cc(Cl)cnc3N3CC(Oc4ccc(F)cc4F)C3)CC2)cc1 [E 19, 4-(1-(5-chloro-2-(3-(2,4-difluorophenoxy)azetidin-1-yl)nicotinamido)cyclopropyl)benzoic acid]"
65,39.8,"O=C(O)c1ccc(C2(NC(=O)c3cc(Cl)cnc3N3CCC(Oc4cccc(C(F)(F)F)c4)C3)CC2)cc1 (single isomer, unassigned) [E 65, 4-(1-(5-chloro-2-(3-(3-(trifluoromethyl)phenoxy)pyrrolidin-1-yl)nicotinamido)cyclopropyl)benzoic acid]"
46,10,"Cc1cc(F)ccc1NC1CN(c2ncc(F)cc2C(=O)NC2(c3ccc(C(=O)O)cc3)CC2)C1 [E 56, 4-(1-(5-fluoro-2-(3-((4-fluoro-2-methylphenyl)amino)azetidin-1-yl)nicotinamido)cyclopropyl)benzoic acid]"
22,12.6,"O=C(O)c1ccc(C2(NC(=O)c3cc(Cl)cnc3N3CC(Oc4cccc(OC(F)(F)F)c4)C3)CC2)cc1 [E 18, 4-(1-(5-chloro-2-(3-(3-(trifluoromethoxy)phenoxy)azetidin-1-yl)nicotinamido)cyclopropyl)benzoic acid]"
